± gives the expanded uncertainty stated by the source.
Test: xn = mol fraction of the nth substance listed
Conditions: 101 kPa, Liquid; for viscosity: Capillary tube (Ostwald / Ubbelohde) method

NCCNCCO [N-(2-aminoethyl)ethanolamine] + O
viscosity (298.15 K, x1 = 0.05): 2.45 ± 0.08 mPa·s
viscosity (298.15 K, x1 = 0.07): 3.87 ± 0.12 mPa·s
viscosity (298.15 K, x1 = 0.0999): 6.76 ± 0.22 mPa·s
viscosity (298.15 K, x1 = 0.1992): 30 ± 0.9 mPa·s
viscosity (298.15 K, x1 = 0.3): 70.9 ± 2.2 mPa·s
viscosity (298.15 K, x1 = 0.3997): 104 ± 3 mPa·s
viscosity (298.15 K, x1 = 0.4991): 121 ± 4 mPa·s
viscosity (298.15 K, x1 = 0.599): 124 ± 4 mPa·s
viscosity (298.15 K, x1 = 0.6991): 121 ± 4 mPa·s
viscosity (298.15 K, x1 = 0.7997): 116 ± 4 mPa·s
viscosity (298.15 K, x1 = 0.9002): 109 ± 4 mPa·s
viscosity (298.15 K, x1 = 1): 98.6 ± 3.2 mPa·s
mass density (298.15 K, x1 = 0.05): 1015.65 ± 0.25 kg/m3
mass density (298.15 K, x1 = 0.07): 1022.28 ± 0.25 kg/m3
mass density (298.15 K, x1 = 0.0999): 1030.85 ± 0.25 kg/m3
mass density (298.15 K, x1 = 0.1992): 1047.37 ± 0.28 kg/m3
mass density (298.15 K, x1 = 0.3): 1050.66 ± 0.31 kg/m3
mass density (298.15 K, x1 = 0.3997): 1048.18 ± 0.35 kg/m3
mass density (298.15 K, x1 = 0.4991): 1044.05 ± 0.38 kg/m3
mass density (298.15 K, x1 = 0.599): 1039.62 ± 0.41 kg/m3
mass density (298.15 K, x1 = 0.6991): 1035.48 ± 0.44 kg/m3
mass density (298.15 K, x1 = 0.7997): 1031.83 ± 0.48 kg/m3
mass density (298.15 K, x1 = 0.9002): 1028.28 ± 0.51 kg/m3
mass density (298.15 K, x1 = 1): 1025.28 ± 0.55 kg/m3
viscosity (303.15 K, x1 = 0.05): 2.16 ± 0.07 mPa·s
viscosity (303.15 K, x1 = 0.07): 3.24 ± 0.1 mPa·s
viscosity (303.15 K, x1 = 0.0999): 5.5 ± 0.18 mPa·s
viscosity (303.15 K, x1 = 0.1992): 22.6 ± 0.7 mPa·s
viscosity (303.15 K, x1 = 0.3): 50.4 ± 1.5 mPa·s
viscosity (303.15 K, x1 = 0.3997): 72.8 ± 2.2 mPa·s
viscosity (303.15 K, x1 = 0.4991): 83.9 ± 2.6 mPa·s
viscosity (303.15 K, x1 = 0.599): 87 ± 2.7 mPa·s
viscosity (303.15 K, x1 = 0.6991): 84.8 ± 2.7 mPa·s
viscosity (303.15 K, x1 = 0.7997): 82.5 ± 2.6 mPa·s
viscosity (303.15 K, x1 = 0.9002): 78.1 ± 2.4 mPa·s
viscosity (303.15 K, x1 = 1): 70.5 ± 2.2 mPa·s
mass density (303.15 K, x1 = 0.05): 1013.65 ± 0.25 kg/m3
mass density (303.15 K, x1 = 0.07): 1020.01 ± 0.25 kg/m3
mass density (303.15 K, x1 = 0.0999): 1028.24 ± 0.24 kg/m3
mass density (303.15 K, x1 = 0.1992): 1044.02 ± 0.28 kg/m3
mass density (303.15 K, x1 = 0.3): 1047.05 ± 0.31 kg/m3
mass density (303.15 K, x1 = 0.3997): 1044.5 ± 0.34 kg/m3
mass density (303.15 K, x1 = 0.4991): 1040.33 ± 0.37 kg/m3
mass density (303.15 K, x1 = 0.599): 1035.89 ± 0.4 kg/m3
mass density (303.15 K, x1 = 0.6991): 1031.74 ± 0.44 kg/m3
mass density (303.15 K, x1 = 0.7997): 1028.11 ± 0.47 kg/m3
mass density (303.15 K, x1 = 0.9002): 1024.57 ± 0.51 kg/m3
mass density (303.15 K, x1 = 1): 1021.53 ± 0.55 kg/m3
viscosity (313.15 K, x1 = 0.05): 1.63 ± 0.05 mPa·s
viscosity (313.15 K, x1 = 0.07): 2.29 ± 0.07 mPa·s
viscosity (313.15 K, x1 = 0.0999): 3.83 ± 0.12 mPa·s
viscosity (313.15 K, x1 = 0.1992): 13.5 ± 0.4 mPa·s
viscosity (313.15 K, x1 = 0.3): 27.8 ± 0.8 mPa·s
viscosity (313.15 K, x1 = 0.3997): 38.9 ± 1.2 mPa·s
viscosity (313.15 K, x1 = 0.4991): 44.8 ± 1.4 mPa·s
viscosity (313.15 K, x1 = 0.599): 46.5 ± 1.4 mPa·s
viscosity (313.15 K, x1 = 0.6991): 45.7 ± 1.4 mPa·s
viscosity (313.15 K, x1 = 0.7997): 44.8 ± 1.4 mPa·s
viscosity (313.15 K, x1 = 0.9002): 44.4 ± 1.4 mPa·s
viscosity (313.15 K, x1 = 1): 39.4 ± 1.2 mPa·s
mass density (313.15 K, x1 = 0.05): 1009.22 ± 0.24 kg/m3
mass density (313.15 K, x1 = 0.07): 1015.13 ± 0.24 kg/m3
mass density (313.15 K, x1 = 0.0999): 1022.7 ± 0.24 kg/m3
mass density (313.15 K, x1 = 0.1992): 1037.13 ± 0.27 kg/m3
mass density (313.15 K, x1 = 0.3): 1039.7 ± 0.3 kg/m3
mass density (313.15 K, x1 = 0.3997): 1037.01 ± 0.34 kg/m3
mass density (313.15 K, x1 = 0.4991): 1032.79 ± 0.37 kg/m3
mass density (313.15 K, x1 = 0.599): 1028.36 ± 0.4 kg/m3
mass density (313.15 K, x1 = 0.6991): 1024.21 ± 0.43 kg/m3
mass density (313.15 K, x1 = 0.7997): 1020.57 ± 0.47 kg/m3
mass density (313.15 K, x1 = 0.9002): 1017.06 ± 0.5 kg/m3
mass density (313.15 K, x1 = 1): 1014.02 ± 0.54 kg/m3
viscosity (323.15 K, x1 = 0.05): 1.26 ± 0.04 mPa·s
viscosity (323.15 K, x1 = 0.07): 1.75 ± 0.06 mPa·s
viscosity (323.15 K, x1 = 0.0999): 2.8 ± 0.09 mPa·s
viscosity (323.15 K, x1 = 0.1992): 8.7 ± 0.3 mPa·s
viscosity (323.15 K, x1 = 0.3): 16.5 ± 0.5 mPa·s
viscosity (323.15 K, x1 = 0.3997): 22.5 ± 0.7 mPa·s
viscosity (323.15 K, x1 = 0.4991): 25.6 ± 0.8 mPa·s
viscosity (323.15 K, x1 = 0.599): 26.7 ± 0.8 mPa·s
viscosity (323.15 K, x1 = 0.6991): 26.4 ± 0.8 mPa·s
viscosity (323.15 K, x1 = 0.7997): 26 ± 0.8 mPa·s
viscosity (323.15 K, x1 = 0.9002): 26 ± 0.8 mPa·s
viscosity (323.15 K, x1 = 1): 23.4 ± 0.7 mPa·s
mass density (323.15 K, x1 = 0.05): 1004.24 ± 0.23 kg/m3
mass density (323.15 K, x1 = 0.07): 1009.76 ± 0.23 kg/m3
mass density (323.15 K, x1 = 0.0999): 1016.8 ± 0.23 kg/m3
mass density (323.15 K, x1 = 0.1992): 1030.03 ± 0.27 kg/m3
mass density (323.15 K, x1 = 0.3): 1032.15 ± 0.3 kg/m3
mass density (323.15 K, x1 = 0.3997): 1029.37 ± 0.33 kg/m3
mass density (323.15 K, x1 = 0.4991): 1025.13 ± 0.36 kg/m3
mass density (323.15 K, x1 = 0.599): 1020.71 ± 0.39 kg/m3
mass density (323.15 K, x1 = 0.6991): 1016.59 ± 0.43 kg/m3
mass density (323.15 K, x1 = 0.7997): 1012.96 ± 0.46 kg/m3
mass density (323.15 K, x1 = 0.9002): 1009.48 ± 0.5 kg/m3
mass density (323.15 K, x1 = 1): 1006.44 ± 0.53 kg/m3
viscosity (333.15 K, x1 = 0.05): 1.01 ± 0.03 mPa·s
viscosity (333.15 K, x1 = 0.07): 1.38 ± 0.04 mPa·s
viscosity (333.15 K, x1 = 0.0999): 2.05 ± 0.06 mPa·s
viscosity (333.15 K, x1 = 0.1992): 5.9 ± 0.2 mPa·s
viscosity (333.15 K, x1 = 0.3): 10.5 ± 0.3 mPa·s
viscosity (333.15 K, x1 = 0.3997): 13.8 ± 0.4 mPa·s
viscosity (333.15 K, x1 = 0.4991): 15.8 ± 0.5 mPa·s
viscosity (333.15 K, x1 = 0.599): 16.5 ± 0.5 mPa·s
viscosity (333.15 K, x1 = 0.6991): 16.5 ± 0.5 mPa·s
viscosity (333.15 K, x1 = 0.7997): 16.4 ± 0.5 mPa·s
viscosity (333.15 K, x1 = 0.9002): 16.5 ± 0.5 mPa·s
viscosity (333.15 K, x1 = 1): 14.8 ± 0.5 mPa·s
mass density (333.15 K, x1 = 0.05): 998.75 ± 0.23 kg/m3
mass density (333.15 K, x1 = 0.07): 1003.89 ± 0.22 kg/m3
mass density (333.15 K, x1 = 0.0999): 1010.53 ± 0.22 kg/m3
mass density (333.15 K, x1 = 0.1992): 1022.69 ± 0.26 kg/m3
mass density (333.15 K, x1 = 0.3): 1024.44 ± 0.29 kg/m3
mass density (333.15 K, x1 = 0.3997): 1021.57 ± 0.32 kg/m3
mass density (333.15 K, x1 = 0.4991): 1017.35 ± 0.35 kg/m3
mass density (333.15 K, x1 = 0.599): 1012.96 ± 0.39 kg/m3
mass density (333.15 K, x1 = 0.6991): 1008.88 ± 0.42 kg/m3
mass density (333.15 K, x1 = 0.7997): 1005.3 ± 0.46 kg/m3
mass density (333.15 K, x1 = 0.9002): 1001.84 ± 0.49 kg/m3
mass density (333.15 K, x1 = 1): 998.83 ± 0.53 kg/m3
viscosity (343.15 K, x1 = 0.05): 0.839 ± 0.026 mPa·s
viscosity (343.15 K, x1 = 0.07): 1.11 ± 0.03 mPa·s
viscosity (343.15 K, x1 = 0.0999): 1.6 ± 0.05 mPa·s
viscosity (343.15 K, x1 = 0.1992): 4.2 ± 0.1 mPa·s
viscosity (343.15 K, x1 = 0.3): 7 ± 0.2 mPa·s
viscosity (343.15 K, x1 = 0.3997): 9.1 ± 0.3 mPa·s
viscosity (343.15 K, x1 = 0.4991): 10.3 ± 0.3 mPa·s
viscosity (343.15 K, x1 = 0.599): 10.8 ± 0.3 mPa·s
viscosity (343.15 K, x1 = 0.6991): 10.8 ± 0.3 mPa·s
viscosity (343.15 K, x1 = 0.7997): 10.8 ± 0.3 mPa·s
viscosity (343.15 K, x1 = 0.9002): 10.7 ± 0.3 mPa·s
viscosity (343.15 K, x1 = 1): 10.1 ± 0.3 mPa·s
mass density (343.15 K, x1 = 0.05): 992.77 ± 0.23 kg/m3
mass density (343.15 K, x1 = 0.07): 997.34 ± 0.22 kg/m3
mass density (343.15 K, x1 = 0.0999): 1003.89 ± 0.22 kg/m3
mass density (343.15 K, x1 = 0.1992): 1015.09 ± 0.26 kg/m3
mass density (343.15 K, x1 = 0.3): 1016.53 ± 0.29 kg/m3
mass density (343.15 K, x1 = 0.3997): 1013.6 ± 0.32 kg/m3
mass density (343.15 K, x1 = 0.4991): 1009.42 ± 0.35 kg/m3
mass density (343.15 K, x1 = 0.599): 1005.1 ± 0.38 kg/m3
mass density (343.15 K, x1 = 0.6991): 1001.06 ± 0.41 kg/m3
mass density (343.15 K, x1 = 0.7997): 997.54 ± 0.45 kg/m3
mass density (343.15 K, x1 = 0.9002): 994.11 ± 0.49 kg/m3
mass density (343.15 K, x1 = 1): 991.15 ± 0.53 kg/m3

From the NIST ThermoML archive (doi:10.1021/je060032n)
